According to patent US12551484B2, “Methods of treatment and/or prevention of major adverse cardiovascular events (MACE) with a combination of a BET bromodomain inhibitor and a sodium dependent glucose transport 2 inhibitor” (Resverlogix Corp., priority 2019, dated 2026):
Like-named read-outs stand apart in the source and are kept apart here.

Key:
type 2 diabetes patients [1] = conditions: human, in vivo; cited from earlier work
[2] = system: type 2 diabetes patients with low HDL cholesterol and a recent acute coronary syndrome (ACS); test: BETonMACE Phase 3 trial (NCT02586155), post-hoc analysis by SGLT2 inhibitor use
Method: All patients received high intensity statin treatment as well as other evidence-based treatments.
Patients (n=2425) with ACS in the preceding 7 to 90 days, with type 2 diabetes and low HDL cholesterol (≤40 mg/dl for men, 45 mg/dl for women), receiving intensive or maximum-tolerated therapy with atorvastatin or rosuvastatin, were assigned in double-blind fashion to receive apabetalone 100 mg orally twice daily or matching placebo. […] The primary efficacy measure is time to first occurrence of cardiovascular death, non-fatal myocardial infarction, or stroke.
Those patients who received at least one dose of SGLT2 treatment after the date of the first incidence of event were censored as non-MACE events and the date of last contact was used as the censoring date.
The distributions of the endpoints within the apabetalone and placebo groups were compared using a two-sided log-rank test (LRT) with an alpha=0.05 level of significance. The cumulative incidence is shown as 1-KM (Kaplan-Meier) estimate for event rate.

type 2 diabetes patients [3] = conditions: cited from earlier work
[4] = cardiovascular death, non-fatal myocardial infarction, or stroke, FIGS. 1-2
[5] = patients not treated with SGLT2 inhibitor, vs placebo (FIG. 2)
[6] = patients not treated with SGLT2 inhibitor, vs placebo (FIG. 5)
[7] = patients not treated with SGLT2 inhibitor, vs placebo (FIG. 8)
[8] = patients not treated with SGLT2 inhibitor, vs placebo (FIG. 11)
[9] = patients not treated with SGLT2 inhibitor, vs placebo (FIG. 14)
[10] = patients not treated with SGLT2 inhibitor, vs placebo (FIG. 17)

## Cc1ccc([C@@H]2O[C@H](CO)[C@@H](O)[C@H](O)[C@H]2O)cc1Cc1ccc(-c2ccc(F)cc2)s1 [Canaglifozin, canagliflozin]
Type 2 diabetes patients [1]
  HR, narrowly defined MACE: 0.86
  reduction of narrowly defined MACE: 14%
  reductions in the individual MACE events: did not reach statistical significance

## COc1cc(OC)c2c(=O)[nH]c(-c3cc(C)c(OCCO)c(C)c3)nc2c1 [apabetalone, 2-(4-(2-hydroxyethoxy)-3,5-dimethylphenyl)-5,7-dimethoxyquinazolin-4(3H)-one]
[2]; at 18 months, FIGS. 1-2
  Kaplan-Meier estimated event rate, narrowly defined MACE: 8.0%
[2]; [4]
  primary end points (narrowly defined MACE), number in group: 111
  primary end points (narrowly defined MACE), percent of group: 10.5%
[2]; [5]
  Hazard Ratio [HR], narrowly defined MACE: 0.84
  reduction of number of patients having a narrowly defined MACE event at any given time: 16%
[2]; [6]
  Hazard Ratio [HR], broadly defined MACE: 0.87
  reduction of number of patients having a broadly defined MACE event at any given time: 13%
[2]; [7]
  Hazard Ratio [HR], non-fatal myocardial infarction: 0.85
  reduction of number of patients having a non-fatal myocardial infarction event at any given time: 15%
[2]; [8]
  Hazard Ratio [HR], cardiovascular death: 0.84
  reduction of number of patients having a cardiovascular death event at any given time: 16%
[2]; [9]
  Hazard Ratio [HR], hospitalization for cardiovascular diseases: 0.87
  reduction of number of patients having a hospitalization for cardiovascular diseases event at any given time: 13%
[2]; [10]
  Hazard Ratio [HR], hospitalization for congestive heart failure: 0.61
  reduction of number of patients having a hospitalization for congestive heart failure event at any given time: 39%

## OC[C@H]1O[C@@H](c2ccc(Cl)c(Cc3ccc(O[C@H]4CCOC4)cc3)c2)[C@H](O)[C@@H](O)[C@@H]1O [empaglifozin, empagliflozin]
Type 2 diabetes patients [3]; human, in vivo
  HR, broadly defined MACE: 0.89
  HR, cardiovascular deaths: 0.62
  Hazard Ratio [HR], narrowly defined MACE: 0.86
  reduction of broadly defined MACE: 11%
  reduction of narrowly defined MACE: 14%
Type 2 diabetes patients [3]; with the exception of cardiovascular deaths, did not show any reduction
  HR, individual MACE events: 1.0
